According to patent publication US4066650A, “Keto-aldehyde-amine addition products and method of making same” (priority 1975, dated 1978):
One block for each molecule: values may come before it.

Columns and labels:
[1] = system: normal (non-tumorous) mice; assay: Acute toxicity (mortality), body weight change and 30-day survival in normal mice; settings: for LD10 (maximum tolerated dose at 10% lethality) / effect of reduction in the total volume of injection on mortality: mice; for LD10 (maximum tolerated dose at 10% lethality) / 30 day mortality rate of all treated nontumorous animals (compared with mortality in 10 days): i.p. daily for 10 days; for effect of reduction in the total volume of injection on mortality: i.p., volume below 1.0 ml/animal/day; for 30 day mortality rate of all treated nontumorous animals (compared with mortality in 10 days): 30 day observation
Method: (§1) The biological effects of methylglyoxal maleimide ("A") and methylglyoxal glutaconic imide ("B") were determined by tests on normal (non-tumorous) and subcutaneous Sarcoma-180 tumor-bearing mice. […] The compounds were administered by intraperitoneal route and the values were calculated by standard methods (Goldin A., in Meth.Can.Res. 4, p. 193, 1968).
(§2) A thirty-day survival test was carried out with normal mice to determine any possible delayed toxicity.
(§3) The test solutions were prepared by dissolving either 38.72 mg of methylglyoxal maleimide ("A") or 5278 mg of methylglyoxal glutaconic imide ("B") in 100 ml of physiological saline. The pH of the solution was adjusted to 6.0, sterilized on Millipore filtration and stored in sterile vials at about 10° C. One […] of such solutions contained 0.387 mg of compound "A" or 52.78 mg of compound "B", respectively and when injected into mice of an average weight of 26 grams the dose was equivalent to 14.884 mg/kg of the compound "A" and 2030 mg/kg of the compound "B".
(§4) Normal, non-tumor-bearing mice of the same strain, sex and weight were also randomized and placed in separate test groups.
(§5) The compositions were injected at different dose levels, each dose being double the next-lower dose, with three test groups (30 mice) for each dose level. The injection was effected intraperitoneally into normal and tumor-bearing mice, starting on the fourth day after the inocculation with cancer, once daily for ten consecutive days. […] A proper number of normal and tumorous mice was treated with saline solution in the same manner, frequency and volume as a control experiment. The body weight change and mortality (acute toxicity) were recorded daily.
(§6) A number of normal animals treated with the drugs in the same manner as the tumorous ones were also sacrificed on the eleventh day, and their organs were collected for histological examination.

in vivo [2] = settings: mouse, in vivo, ip
Method: as §1, §2, §3, §4, §5, §6

[3] = system: Sarcoma-180 tumor-bearing mice; assay: in vivo
Method: as §1, §3
(§7) Random-bred Swiss albino mice (Charles River CD-1 strain, average weight 26±3 g, females) were inocculated with 25 million Sarcoma-180 cells (in about 0.25 ml of ascitic fluid, cell age 7 days) on the right scapular region. The animals were randomized on the 4th day after the inocculation with the cancer cells, placed in separate test groups of 10 mice per group (5 mice/cage) and weighed.
(§8) The compositions were injected at different dose levels, each dose being double the next-lower dose, with three test groups (30 mice) for each dose level. The injection was effected intraperitoneally into normal and tumor-bearing mice, starting on the fourth day after the inocculation with cancer, once daily for ten consecutive days. The volume of the injection at each dose level was brought up to 1.0 ml with saline. A proper number of normal and tumorous mice was treated with saline solution in the same manner, frequency and volume as a control experiment. The body weight change and mortality (acute toxicity) were recorded daily.

in vivo [4] = settings: mouse, in vivo, ip; remark: listed apart in the source
Method: as §1, §3, §7, §8

Sarcoma-180 = assay: Anti-tumor action on subcutaneous Sarcoma-180 in mice; format: in vivo, Swiss albino mice (Charles River CD-1 strain); set-up: ED: unit not given here; settings: for IT (therapeutic index LD10/ED90): mice
Method: On the eleventh day (tumer age 14 days) the test and control mice were sacrificed, the tumor or tumorous area was cut out, weighed and stored in formaldehyde for histological examination. At the same time the liver, kidneys, spleen, heart, and a piece of the small intestine were collected and stored in formaldehyde for histopathological evaluation of the effect of the drugs on these tissues and organs.
The anti-neoplastic action of the drugs was assayed by comparison of the tumor weight present in treated and control animals and expressed as the percent of controls average weight (T/C%). The presence of malignancy in the tumors or tumor-areas of the treated animals was verified by histological examination.
The reabsorption of tissue, formed between the inocculation of the cancer cells and the onset of the treatment is relatively slow. Treated animals even under strong cancerostatic action of the drugs show a small quantity (100-200 mg) of tissue in the area where the tumor cells where deposited. It is therefore difficult to tell the nature of these residual tissues by macroscopic examination. Most of these residual "lumps" are made up of connective tissues and necrotic, scar tissues. If it were regarded as neoplasia without histological examination the T/C% calculation would give an erratic result in the evaluation of the anti-cancer action of the compound. Histological examination of these "lumps" therefore is exceedingly important in order to arrive at a valid evaluation of the effectiveness of the drugs especially in short-term experiments (10 days) as carried out in the present assays.

skin graft = assay: Skin graft rejection (orthotopic skin heterografts white to gray and gray to white); format: in vivo, Swiss albino mice and C3HStCrl mice; settings: 3.744 mg/kg i.p. daily, cumulative; for rejection on 31-40 days: g to w line; for rejection on 26-30 days: w to g line
Text: Skin grafting in mice is well established and this tissue is among the most sensitive indicators of histocompability differences. The retnetion of skin graft between genetically non-related mice is an excellent method of evaluating activity against rejection mechanism. p As the rejection of transplants is associated with antigen formation against the incompatible proteins of the donated tissue, a drug which specifically represses the protein synthesis without affecting the intermediary metabolism of the host is a potential candidate for combatting rejection.
The experiments described here were performed on random-bred Swiss albino mice (white, females, average body weight 26±3 g; Charles River CD-1-strain) and inbred C3HStCrl mice (cinnamon gray, females, average body weight 20±2 grams; Charles River pedigreed breeders from L. C. Strong Foundation) and othotopic skin transplants were made in both ways, that is, white to gray and gray to white.
Standard transplantation technique (R. E. Billingham, W. K. Silvers in Transplantation of tissues and cells, The Wistar Institute Press, Philadelphia, p. 8, 1961) was utilized: From nembutal anesthetized animals 4-6 "pinch"-grafts (full thickness, 3-4 mm in diameter) of the close clipped and sterilized skin were collected from the thorax and immediately transplanted. The grafts were positioned in the "beds" (in place of the pinch-graft) and were held in position by tulle gras (vaseline-impregnatedgauze) and by plaster-of-Paris impregnated bandage around the thorax.
The bandages were removed on the 6-9th day after the transplantation and the future development of the grafts was followed by macroscopical observations.
Positive and negative controls were made simultaneously for skin rejection:
a. Four positive control isografts (white to white, and gray to gray) were made. […] On the 21-28th day the fur-bearing skin had regenerated a completely new crop of hairs indistinguishable from the original population with respect to colors, density and orientation.
b. Four negative control heterografts (white to gray and gray to white) were made without treatment. […] On the 10-12th day after transplantation intravascular thrombies, capillary ruptures, extravasation of blood were the first signs that the grafts were heading for necrosis and rejection which occurred on the 18-25th day.
The heterografts with treatment followed three courses with methylglyoxal-maleimide (at dose level 3.744 mg/kg/animal/day) administered intraperitoneally in a total amount of 1.0 ml/animal/day.
i. Animals were treated for 10 days with the composition before grafts were exchanged and treatment was discontinued on the day of transplantation.
ii. Animals were not treated before the grafts were exchanged but the treatment started on the day of transplantation and continued for 10 days.
iii. Animals were treated for 10 days with the drug before the grafts were exchanged and the treatment schedule was continued for 25 days after the transplantation.

Water solubility = format: physicochemical
[5] = (ii) post graft treatment for 10 days
[6] = (iii) pretreatment for 10 days and post graft treatment for 25 days
[7] = tumorous mice, 0.234 mg/kg i.p. daily for 10 days
[8] = tumorous mice, 0.468 mg/kg i.p. daily for 10 days
[9] = tumorous mice, 0.936 mg/kg i.p. daily for 10 days
[10] = tumorous mice, 1.872 mg/kg i.p. daily for 10 days
[11] = tumorous mice, 3.744 mg/kg i.p. daily for 10 days
[12] = tumorous mice, 7.488 mg/kg i.p. daily for 10 days

Structure (SMILES): CC(=O)C(O)N1C(=O)C=CCC1=O (centres unmarked) [Methylglyoxal-glutaconic imide, N'-(2-keto-propane-1-ol)-2,6-dioxopyridine]
LD10 (maximum tolerated dose at 10% lethality) [1]: 1310 mg;kg
effect of reduction in the total volume of injection on mortality [1]: increase in mortality
Δ body wt ([1]; mouse, in vivo, ip, 63.5 mg/kg): +0.55
Δ body wt ([1]; mouse, in vivo, ip, 127 mg/kg): +0.3
Δ body wt ([1]; mouse, in vivo, ip, 254 mg/kg): +0.15
Δ body wt ([1]; mouse, in vivo, ip, 508 mg/kg): -0.1
Δ body wt ([1]; mouse, in vivo, ip, 1016 mg/kg): -0.1
Δ body wt ([1]; mouse, in vivo, ip, 1524 mg/kg): -0.4
30 day mortality rate of all treated nontumorous animals (compared with mortality in 10 days) ([1]; normal mice): identical
mortality at 240 h (in vivo [2]; 63.5 mg/kg): 0%
mortality at 240 h (in vivo [2]; 127 mg/kg): 0%
mortality at 240 h (in vivo [2]; 254 mg/kg): 0%
mortality at 240 h (in vivo [2]; 508 mg/kg): 0%
mortality at 240 h (in vivo [2]; 1016 mg/kg): 0%
mortality at 240 h (in vivo [2]; 2032 mg/kg): 100%
Δ body wt ([3]; mouse, in vivo, ip, 63.5 mg/kg): +0.6
Δ body wt ([3]; mouse, in vivo, ip, 127 mg/kg): +0.35
Δ body wt ([3]; mouse, in vivo, ip, 254 mg/kg): +0.4
Δ body wt ([3]; mouse, in vivo, ip, 508 mg/kg): +0.1
Δ body wt ([3]; mouse, in vivo, ip, 1016 mg/kg): -0.3
mortality at 240 h (in vivo [4]; 63.5 mg/kg): 0%
mortality at 240 h (in vivo [4]; 127 mg/kg): 0%
mortality at 240 h (in vivo [4]; 254 mg/kg): 0%
mortality at 240 h (in vivo [4]; 508 mg/kg): 0%
mortality at 240 h (in vivo [4]; 1016 mg/kg): 0%
mortality at 240 h (in vivo [4]; 2032 mg/kg): 100%
ED90 (Sarcoma-180; Mus musculus, Sarcoma-180, ip, 240 h, read-out: ED90 (effective dose at 90% effectiveness)): 210 mg/kg
IT (therapeutic index LD10/ED90) (Sarcoma-180; i.p. daily for 10 days): 6.23
ED (Sarcoma-180; tumorous mice, 63.5 mg/kg i.p. daily for 10 days): > 5
ED (Sarcoma-180; tumorous mice, 127 mg/kg i.p. daily for 10 days): 55
ED (Sarcoma-180; tumorous mice, 254 mg/kg i.p. daily for 10 days): 100
ED (Sarcoma-180; tumorous mice, 508 mg/kg i.p. daily for 10 days): 100
ED (Sarcoma-180; tumorous mice, 1016 mg/kg i.p. daily for 10 days): 100

Structure (SMILES): CC(=O)C(O)N1C(=O)C=CC1=O (centres unmarked) [Methylglyoxal-maleimide, N'-(2-keto-propane-1-ol)-2,5-dioxopyrroline-3-ene]
LD10 (maximum tolerated dose at 10% lethality) [1]: 8.59 mg/kg
effect of reduction in the total volume of injection on mortality [1]: increase in mortality
Δ body wt ([1]; normal mice, 0.234 mg/kg i.p. daily for 10 days): +1.0
Δ body wt ([1]; normal mice, 0.468 mg/kg i.p. daily for 10 days): +0.7
Δ body wt ([1]; normal mice, 0.936 mg/kg i.p. daily for 10 days): +0.46
Δ body wt ([1]; normal mice, 1.872 mg/kg i.p. daily for 10 days): +0.39
Δ body wt ([1]; normal mice, 3.744 mg/kg i.p. daily for 10 days): +0.1
Δ body wt ([1]; normal mice, 7.488 mg/kg i.p. daily for 10 days): -0.2
30 day mortality rate of all treated nontumorous animals (compared with mortality in 10 days) ([1]; normal mice): identical
mortality at 240 h (in vivo [2]; 0.234 mg/kg): 0%
mortality at 240 h (in vivo [2]; 0.468 mg/kg): 0%
mortality at 240 h (in vivo [2]; 0.936 mg/kg): 0%
mortality at 240 h (in vivo [2]; 1.872 mg/kg): 0%
mortality at 240 h (in vivo [2]; 3.744 mg/kg): 0%
mortality at 240 h (in vivo [2]; 7.488 mg/kg): 0%
mortality at 240 h (in vivo [2]; 14.896 mg/kg): 100%
rejection on 31-40 days (skin graft; (i) pretreatment for 10 days): 100%
rejection on 26-30 days (skin graft; (i) pretreatment for 10 days): 30%
rejection on 31-40 days (skin graft; [5]): 60%
rejection on 26-30 days (skin graft; [5]): 10%
rejection on 31-40 days (skin graft; [6]): 10%
rejection on 26-30 days (skin graft; [6]): No rejection
Δ body wt [3, 7]: +0.96
Δ body wt [3, 8]: +0.65
Δ body wt [3, 9]: +0.6
Δ body wt [3, 10]: +0.4
Δ body wt [3, 11]: +0.3
Δ body wt [3, 12]: +0.1
mortality at 240 h (in vivo [4]; 0.234 mg/kg): 0%
mortality at 240 h (in vivo [4]; 0.468 mg/kg): 0%
mortality at 240 h (in vivo [4]; 0.936 mg/kg): 0%
mortality at 240 h (in vivo [4]; 1.872 mg/kg): 0%
mortality at 240 h (in vivo [4]; 3.744 mg/kg): 0%
mortality at 240 h (in vivo [4]; 7.488 mg/kg): 0%
mortality at 240 h (in vivo [4]; 14.896 mg/kg): 100%
ED99 (Sarcoma-180; Mus musculus, Sarcoma-180, ip, 240 h, tumorous mice, i.p. daily for 10 days): 1.15 mg/kg
IT (therapeutic index LD10/ED90) (Sarcoma-180; i.p. daily for 10 days): 7.46
ED% (Sarcoma-180; [7]): > 0.5%
ED% (Sarcoma-180; [8]): ~ 1%
ED% (Sarcoma-180; [9]): 60%
ED% (Sarcoma-180; [10]): 100%
ED% (Sarcoma-180; [11]): 100%
ED% (Sarcoma-180; [12]): 100%

water solubility (Water solubility): high
Structure (SMILES): CC(=O)C(O)N1C(=O)CCC1=O (centres unmarked) [Methylglyoxal-succinimide, N-(2-keto-propane-1ol)-2,5diketo pyrrolidine]
